{"source": "patent EP2161028B1", "about": "“Food product comprising dipeptides having antihypertensive properties” (Unilever N.V., priority 2008, dated 2011)", "design": "AUC: unit not given beside the values", "experimental": "The pH of simulated gastric fluid (SGF, 0.15 M NaCl, pH 2.5) was increased to 7.5 with […] (40 mM), and the following compounds were added to adjust the pH to 6.8 and simulate a duodenal-jejunal environment and create simulated small intestinal fluid (SIF): (i) a bile salt mixture containing equimolar quantities (0.125 M) of sodium taurocholate and glycodeoxycholic acid in NaHC03 (1 M), (ii) solutions of pancreatin from porcine pancreas (9 mg/mL) in water was prepared and added at approximately physiological ratios. The pH was adjusted to 6.8 with HCl (0.1 M). Peptides were dissolved in SIF at a final peptide concentration of 50 µM. Aliquots (1 mL) were prepared for sampling at different time points. Simulated intestinal digestion was carried out at 37°C, and aliquots (1 mL) were taken at 0, 5, 15, and 60 min after the start of the experiment. After peptide hydrolysis, digestive enzymes were inactivated at 95°C for 15 min and samples were cooled immediately on ice water and stored at -20°C until further analysis.\nQuantification of dipeptides derived from digestion were performed using a liquid chromatography multiple reaction ion monitoring-mass spectrometry (LC-MRM-MS) method as described van Platerink CJ, Janssen HG, Horsten R, Haverkamp J. Quantification of ACE inhibiting peptides in human plasma using high performance liquid chromatography-mass spectrometry. J Chromatogr B Analyt Technol Biomed Life Sci 2006,830:151-157. Peptide separation was performed on an Atlantis Hilic Silica column (2.1 x 150 mm, 3 µm particle size) and a Micromass Quattro-II (Milford MA, USA) with HP1100LC system (Hewlett-Packard, USA). The gradient started at 100% 0.1 % trifluoro acetic acid in Milli-Q water and ended at 70% 0.1% trifluoro acetic acid in acetonitrile. To support the ionization, a 70/30 mixture of propionic acid and propanol-2 was added postcolumn at a flow rate of […]. All analyses were conducted on an Alliance 2795 HPLC (Waters, Milford MA, USA) combined with a Quattro Premier triple quadrupole mass spectrometer from the same supplier.\nAn intestinal stability data set consisting of 228 dipeptides was generated based on the results from the simulated digestion experiments. The area under the time - peptide concentration curve was calculated and used for further analysis and modelling. An ACE inhibitory dipeptide database consisting of 228 dipeptides was constructed.\nFor each peptide the relative stability (in % of initial dipeptide concentration) was plotted against time and the area under the curve (AUC) was calculated.", "note": "Peptide text beside a SMILES is read from it.", "data": [{"smiles": "C[C@H](NC(=O)[C@@H](N)CS)C(=O)O", "note": "[CA] (H-Cys-Ala-OH)", "values": [{"measurement": "AUC", "value": 0}]}, {"smiles": "C[C@@H](O)[C@H](NC(=O)[C@@H](N)CS)C(=O)O", "note": "[CT] (H-Cys-Thr-OH)", "values": [{"measurement": "intestinal stability (in words)", "value": "high intestinal stability"}]}, {"smiles": "C[C@@H](O)[C@H](NC(=O)[C@@H](N)CC(=O)O)C(=O)O", "note": "[DT] (H-Asp-Thr-OH)", "values": [{"measurement": "intestinal stability (in words)", "value": "high intestinal stability"}]}, {"smiles": "N[C@@H](Cc1c[nH]c2ccccc12)C(=O)N[C@@H](CC(=O)O)C(=O)O", "note": "[WD] (H-Trp-Asp-OH)", "values": [{"measurement": "intestinal stability (in words)", "value": "high intestinal stability"}]}, {"smiles": "N[C@@H](Cc1c[nH]c2ccccc12)C(=O)N[C@@H](CO)C(=O)O", "note": "[WS] (H-Trp-Ser-OH)", "values": [{"measurement": "intestinal stability (in words)", "value": "high intestinal stability"}]}, {"smiles": "C[C@@H](O)[C@H](NC(=O)[C@@H](N)Cc1c[nH]c2ccccc12)C(=O)O", "note": "[WT] (H-Trp-Thr-OH)", "values": [{"measurement": "intestinal stability (in words)", "value": "high intestinal stability"}]}]}
